Data from the NIST ThermoML archive (doi:10.1016/j.jct.2017.04.007).

Settings: Liquid; for speed of sound: Frequency=3 MHz, Pulse-echo method; for mass density: Vibrating tube method

CCOC(F)(C(F)(F)C(F)(F)C(F)(F)F)C(F)(C(F)(F)F)C(F)(F)F (stereo not drawn) [2-trifluoromethyl-3-ethoxydodecafluorohexane]
Settings	mass density, 293.15 K [kg/m3]	mass density, 303.15 K [kg/m3]	mass density, 313.15 K [kg/m3]	mass density, 323.15 K [kg/m3]	mass density, 333.15 K [kg/m3]	speed of sound, 293.15 K [m/s]	speed of sound, 303.15 K [m/s]	speed of sound, 313.15 K [m/s]	speed of sound, 323.15 K [m/s]	speed of sound, 333.15 K [m/s]
100 kPa	1630.2	1609.7	1588.6	1567.3	1545.6	673.7	643.7	616.7	588.4	561.4
10000 kPa	1654	1635.5	1616.6	1597.6	1578.4	–	–	–	–	–
20000 kPa	1674.8	1657.8	1640.2	1622.7	1605.3	781.1	755.3	732.2	709.6	688.4
30000 kPa	1693.3	1677.3	1660.7	1644.3	1628.1	–	–	–	–	–
40000 kPa	1709.8	1694.6	1678.9	1663.4	1648.2	865.8	842.8	822	802.1	783.3
50000 kPa	1724.9	1710.4	1695.4	1680.6	1666.2	–	–	–	–	–
60000 kPa	1738.8	1724.9	1710.5	1696.4	1682.6	938.1	916.9	897.4	878.6	861.5
70000 kPa	1751.7	1738.4	1724.6	1710.9	1697.7	–	–	–	–	–
80000 kPa	1763.9	1750.9	1737.1	1724.2	1711.6	1001.8	981.3	963	945.6	929.1
90000 kPa	1775.4	1762.8	1749.7	1736.8	1724.6	–	–	–	–	–
100000 kPa	1786.2	1773.9	1761.2	1748.7	1736.9	1058	1038.5	1021.7	1004.9	989.3
110000 kPa	1796.5	1784.5	1772.2	1760	1748.2	–	–	–	–	–
120000 kPa	1806.3	1794.5	1782.5	1770.6	1759.3	–	–	–	–	–
130000 kPa	1815.8	1804.2	1792.5	1780.7	–	–	–	–	–	–
140000 kPa	1824.9	1813.4	1802	1790.5	–	–	–	–	–	–
